Assays:
[1] = system: MRL (1 pr/1 pr) mice; settings: single administration of 10 mg/kg endoxan
Experimental: (§1) Ten weeks old male MRL (1 pr/1 pr) mice was used as experimental animals and DS prepared according to reference example 1 was used as an agent by dissolving it in sterile physiological saline solution on use.
(§2) Sterile physiological saline solution was administered in negative control group (non-treated group).
DS was daily, 5 times per week (neither on Saturday or on Sunday), administered into tail vein in mice using 1 ml disposable syringe at the dose level of 25 mg/kg/day. […] During administration, animals were daily observed carefully. After 8 weeks, blood samples were taken under anesthesia with Nembutal and animals were killed by exsanguination. Then, serum creatinine level, spleen weight and the weight of mesenteric lymph node were measured.
Treatment for enlarged spleen in MRL mice was tried. […] The dose of DS was 25 mg/kg in any case.

[2] = system: MRL (1 pr/1 pr) mice; settings: single administration of 20 mg/kg endoxan i.p. once a week, 8 weeks
Experimental: as §1, §2
At the age of 10 weeks old, body weight of animals were weighed and blood samples were taken for determination of serum BUN (urea nitrogen) and serum creatinine. […] DS was daily, 5 times per week (neither on Saturday or on Sunday), administered into tail vein in mice using 1 ml disposable syringe at the dose level of 25 mg/kg/day. […] During administration, animals were daily observed carefully. After 8 weeks, blood samples were taken under anesthesia with Nembutal and animals were killed by exsanguination. Then, serum creatinine level, spleen weight and the weight of mesenteric lymph node were measured.

[3] = set-up: species or system SD male rats; settings: rat, in vivo
Experimental: X represents overlapping ◯ and ●.
Dermatan sulfate derived from crest and dermatan sulfate derived from bovine intestine (see reference example 2 in WO95/09188) were administered into tail vein of SD male rats and changes with the passage of time in the residual level of dermatan sulfate in blood were determined and the residual rate thereof to the initial level of dermatan sulfate on administration was calculated (see example 1 in the above International publication). […] Thus, since dermatan sulfate derived from crest or dermatan sulfate with the equivalent physical properties has a long life span in blood and sustained anti-inflammatory effects, a large dosage thereof is not required for the treatment and dermatan sulfate derived from crest or equivalent thereof is the most preferable.

[4] = system: MRL (1 pr/1 pr) mice with nephritis; experiment: Mice SLE model-1: effects on renal function (serum BUN, creatinine); format: in vivo; settings: once per day, five times per week, 4 weeks
Experimental: As agents, DS or low molecular weight heparin ([…], Fragmin) prepared according to a method in reference example 1 was dissolved in sterile physiological saline solution on use. Blood samples were taken from 17 weeks old mice, only MRL mice with nephritis whose level of blood urea nitrogen (BUN) were high at the nearly same level were selected and divided into 4 groups, each group consisting of 5 mice. Sterile physiological saline solution was administered in one group as non-treated control group, 5 mg/kg of DS, 25 mg/kg of DS and 1 mg/kg of […] were administered into tail vein in another 3 groups, once per day and five times per week. […] Serum and plasma taken were used for determination of BUN, creatinine and fibrinogen and kidneys were used for histopathological examination. […] In FIG. 3b, * means that there is a significant difference with p<0.05 from non-treated control group by Bonferroni examination. Both of BUN and creatinine level of non-treated control group were higher than those of normal control group(C57BL/6), which made it clear that renal function thereof was impaired.

[5] = system: MRL (1 pr/1 pr) mice with nephritis; experiment: Mice SLE model-1: histopathological change of renal artery (angiitis); format: in vivo; settings: for angiitis intermediate degree, number of individual / angiitis serious degree, number of individual / angiitis slight degree, number of individual: 5 mice
[6] = system: MRL (1 pr/1 pr) mice with nephritis; experiment: Mice SLE model-1: fibrinogen level in blood; format: in vivo
[7] = system: MRL (1 pr/1 pr) mice with nephritis; experiment: Mice SLE model-1: histopathological observations of kidney (MC and DP glomeruli); format: in vivo; settings: 4 weeks
Experimental: As SLE model, 17 weeks old male MRL (1 pr/1 pr) mice were used, while C57BL/6 mice with the same age and sex were used as normal control. As agents, DS or low molecular weight heparin (LMWHep, Fragmin) prepared according to a method in reference example 1 was dissolved in sterile physiological saline solution on use.
Blood samples were taken from 17 weeks old mice, only MRL mice with nephritis whose level of blood urea nitrogen (BUN) were high at the nearly same level were selected and divided into 4 groups, each group consisting of 5 mice. Sterile physiological saline solution was administered in one group as non-treated control group, 5 mg/kg of DS, 25 mg/kg of DS and 1 mg/kg of LMWHep were administered into tail vein in another 3 groups, once per day and five times per week. […] Serum and plasma taken were used for determination of BUN, creatinine and fibrinogen and kidneys were used for histopathological examination.

[8] = system: Lewis rats with experimental allergic encephalomyelitis; experiment: Rat experimental allergic encephalomyelitis (EAE), multiple sclerosis model; format: in vivo; settings: 5 mg DS i.p. once a day since third day after immunization
[9] = system: Cri; CD-1 mice; experiment: Toxicity test by single intravenous administration; format: in vivo
Experimental: Toxicity test by single intravenous administration of dermatan sulfate(1) Experimental method
As experimental animals, five weeks old female and male Cri; CD-1 mice (Japanese Charles-river (n=5 each) were used. The DS solution obtained by the same method as in reference example 1 was made isotonic using sterile distilled water and sterile physiological saline solution and single 2000 mg/kg of DS was administered intravenously into tail vein in mice and clinical observations were carried out for 14 days.

Compound: O=P1(N(CCCl)CCCl)NCCCO1 (stereo not drawn) [endoxan, Cyclophosphamide]
- spleen weight, compared with negative control group [1]: did not give any effect
- serum creatinine level, compared with negative control group [2]: did not exhibit any effect

Compound: dermatan sulfate [reference compound]
- residual rate of dermatan sulfate in blood [3]: scarcely detected

Compound: sodium salt of dermatan sulfate [DS]
- BUN level ([4]; 5 mg/kg tail vein): slightly improved
- creatinine level ([4]; 5 mg/kg tail vein): slightly improved
- BUN level ([4]; 25 mg/kg tail vein): slightly improved
- creatinine level ([4]; 25 mg/kg tail vein, p<0.05 vs non-treated control): significantly improve
- histopathological evaluation of angiitis of renal artery, versus non-treated group ([5]; 5 mg/kg group): not a big difference
- angiitis intermediate degree, number of individual ([5]; 5 mg/kg group): 2
- angiitis serious degree, number of individual ([5]; 5 mg/kg group): 3
- angiitis slight degree, number of individual ([5]; 5 mg/kg group): 0
- histopathological evaluation of angiitis of renal artery ([5]; 25 mg/kg group): individual with serious degree decreased and individual with intermediate and slight degree increased
- angiitis intermediate degree, number of individual ([5]; 25 mg/kg group): 3
- angiitis serious degree, number of individual ([5]; 25 mg/kg group): 1
- angiitis slight degree, number of individual ([5]; 25 mg/kg group): 1
- increase of fibrinogen level in blood ([6]; 5 mg/kg group): suppressed in a dose-dependent manner
- increase of fibrinogen level in blood ([6]; 25 mg/kg group): suppressed in a dose-dependent manner
- residual rate of dermatan sulfate in blood [3]: about 10%
- residual rate of dermatan sulfate in blood, compared with dermatan sulfate derived from bovine intestine [3]: twice as much
- ratio of DP glomeruli (number of DP glomeruli/total number of glomeruli) ([7]; 5 mg/kg): clearly decreased in a dose-dependent manner
- ratio of MC glomeruli (number of MC glomeruli/total number of glomeruli) ([7]; 5 mg/kg): slightly increased
- ratio of DP glomeruli (number of DP glomeruli/total number of glomeruli) ([7]; 25 mg/kg): clearly decreased in a dose-dependent manner
- ratio of MC glomeruli (number of MC glomeruli/total number of glomeruli) ([7]; 25 mg/kg): significantly increased
- mean onset day [8]: 9.5±0.5
- accumulated clinical scores ([8]; p<0.05 vs control group): 12.4±1.7
- death after 14 days observation ([9]; single 2000 mg/kg i.v. tail vein, 5 female and 5 male mice): no death
- lethal dose ([9]; single i.v. tail vein, mice, 14 days observation): more than 2000 mg/kg

Compound: low molecular weight heparin [LMWHep, reference compound]
- BUN level ([4]; 1 mg/kg tail vein): slightly improved
- creatinine level ([4]; 1 mg/kg tail vein): slightly improved
- histopathological evaluation of angiitis of renal artery, versus non-treated group ([5]; 1 mg/kg group): not a big difference
- angiitis intermediate degree, number of individual ([5]; 1 mg/kg group): 1
- angiitis serious degree, number of individual ([5]; 1 mg/kg group): 4
- angiitis slight degree, number of individual ([5]; 1 mg/kg group): 0
- suppression of increase of fibrinogen level in blood ([6]; 1 mg/kg group): did not scarcely recognized
- ratio of DP glomeruli (number of DP glomeruli/total number of glomeruli) ([7]; 1 mg/kg): such an effect was not recognized
- ratio of MC glomeruli (number of MC glomeruli/total number of glomeruli) ([7]; 1 mg/kg): slightly increased

— patent US6537977B1, “Anti-inflammatory agent” (Seikagaku Corporation, priority 1995, dated 2003)
